This passage reports KM and kcat results from patent US20160160264A1, “DIAGNOSTIC IN VITRO METHOD” (UNIVERSITÄT ZU KÖLN, priority 2013, published 2016).

This assay has as its target T1, recombinantly expressed and purified TPMT (Homo sapiens, UniProt P51580).
T1 construct: made in house
T1 sequence (P51580 1-245): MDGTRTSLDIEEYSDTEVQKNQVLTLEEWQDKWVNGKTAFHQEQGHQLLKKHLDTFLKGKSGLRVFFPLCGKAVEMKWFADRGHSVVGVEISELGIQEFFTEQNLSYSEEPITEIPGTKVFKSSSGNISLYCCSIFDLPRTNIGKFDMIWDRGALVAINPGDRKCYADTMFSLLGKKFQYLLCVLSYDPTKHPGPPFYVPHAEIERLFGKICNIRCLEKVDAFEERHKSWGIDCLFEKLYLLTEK
Description: Steady state kinetics with purified TPMT (substrate methylation, HPLC analysis). To be noted: compound as substrate of 3 ng/μL purified TPMT; Moco: urothione synthesis in presence of alkaline phosphatase; 6-mercaptopurine: 6-methylmercaptopurine synthesis. In kind it is biochemical.
Description: (A) Kinetics of the urothione synthesis by TPMT in the presence of alkaline phosphatase. (B) Kinetics of the 6-methylmercaptopurine synthesis by TPMT. (C) Kinetic parameters of the kinetics shown in A and B.
The in vitro synthesis of urothione in kidney protein extracts is dependent on S-adenosylmethionine and Moco. […] Quantities used: 1.7 μg/μl kidney extract, 5 μM Moco, 500 μM SAM, 250 μM DTT in 0.1 M Tris/HCl pH7.5. The reaction was incubated for 4 h at 37° C. and then heat-denatured for 1 h at 60° for stopping and purified by means of QAE-Sepharose. The eluate was dried up and taken up in the HPLC solvent. HPLC analysis took place on a C4 Reprosil® 100 HPLC column, 150×2 mm, 5 μm particle size (Dr. Maisch GmbH) with 20 mM acetic acid and 15% methanol by isocratic elution. […] The increase of the peak at 24 min elution time indicates the formation of urothione. The increase of the peak at 31 min elution time indicates the formation of jukathione. Quantities used: 20 ng/μl TPMT, 2-16 μM Moco, 500 μM SAM, 250 μM DTT in 0.1 M Tris/HCl pH7.5. The reaction was incubated for 1 h at 37° C. and then heat-denatured for 1 h at 60° for stopping. The eluate was dried up and taken up in the HPLC solvent. HPLC analysis took place on a YMC C18 Hydrosphere@ column, 250×4 mm, 5 μm particle size with 20 mM formic acid by elution in a methanol gradient (0-25% 20 min, 1 mL/min). […] The in vitro transformation of Moco by means of liver extracts into urothione in the presence and absence of the TPMT inhibitor 3,4,5-triiodo benzoic acid is shown in FIG. 4. […] The in vitro transformation of Moco by purified TPMT into jukathione in the presence and absence of the TPMT inhibitor 3,4,5-triiodo benzoic acid is shown in FIG. 5. An HPLC chromatogram is shown of the analysis of jukathione after the incubation of purified 1 ng/μL TPMT with 500 μM SAM, 250 μM DTT and 10 μM Moco in the presence and absence of 2.5 μM 3,4,5-triiodo benzoic acid (inhibitor). […] What is depicted is the in vitro synthesis of urothione in protein extracts from RBCs from individuals with a normal TPMT activity (wild type) and persons with heterozygous mutations in the TPMT gene locus (heterozygous), and one person with a homozygous mutation (homozygous) in the TPMT gene locus. […] What is shown is the determination of the urothione content in individuals with a normal TPMT activity (wild type) and persons with heterozygous mutations in the TPMT gene locus (heterozygous), and two persons with homozygous mutations (homozygous) in the TPMT gene locus.
Urothione detection: 10 μM Moco (isolated from heat-denaturated human sulfite oxidase) are incubated in 50 mM Tris/HCl, pH 7.2, 1 mM SAM, 250 μM dithiothreitol and 1.7 μg/μL liver protein extract or 3.4 μg/μL RBCs for 4 h at 37° C. […]

In the case of `Sc1ncnc2nc[nH]c12` [6-mercaptopurine], the KM was found to be 69 µM and the kcat turned out to be 0.047 s⁻¹.
Taken in the same sequence, the figures for `Nc1nc2c(c(=O)[nH]1)NC1C3=C([S][Mo](=[O])(=[O])([O-])[S]3)C(COP(=O)([O-])O)OC1N2` (stereo not shown) [Moco] were 2 µM and 0.129 s⁻¹.

As a reminder, the KM is the concentration of substrate that gives half-maximal velocity. Broadly, the kcat is the number of substrate molecules converted per active site and unit of time at saturation.
